IC50 data for 54 molecules are collected here from US20250368667A1, “USP1 INHIBITOR” (Shanghai Qilu Pharmaceutical Research and Development …, priority 2022, published 2025).

Each structure is given as a SMILES string.

In this test the target is recombinant human His6-USP1/His6-UAF1 composite protein (Homo sapiens (Human), UniProt O94782). Description: USP1 enzyme activity detection (Ub-Rho fluorescence). Type of test: biochemical. The following applies: USP1/UAF1, Ub-Rho substrate 300 nM, 1 hour pre-incubation; read-out: IC50 (enzymatic inhibition of USP1).
Sequence of recombinant human His6-USP1/His6-UAF1 composite protein (O94782 whole entry): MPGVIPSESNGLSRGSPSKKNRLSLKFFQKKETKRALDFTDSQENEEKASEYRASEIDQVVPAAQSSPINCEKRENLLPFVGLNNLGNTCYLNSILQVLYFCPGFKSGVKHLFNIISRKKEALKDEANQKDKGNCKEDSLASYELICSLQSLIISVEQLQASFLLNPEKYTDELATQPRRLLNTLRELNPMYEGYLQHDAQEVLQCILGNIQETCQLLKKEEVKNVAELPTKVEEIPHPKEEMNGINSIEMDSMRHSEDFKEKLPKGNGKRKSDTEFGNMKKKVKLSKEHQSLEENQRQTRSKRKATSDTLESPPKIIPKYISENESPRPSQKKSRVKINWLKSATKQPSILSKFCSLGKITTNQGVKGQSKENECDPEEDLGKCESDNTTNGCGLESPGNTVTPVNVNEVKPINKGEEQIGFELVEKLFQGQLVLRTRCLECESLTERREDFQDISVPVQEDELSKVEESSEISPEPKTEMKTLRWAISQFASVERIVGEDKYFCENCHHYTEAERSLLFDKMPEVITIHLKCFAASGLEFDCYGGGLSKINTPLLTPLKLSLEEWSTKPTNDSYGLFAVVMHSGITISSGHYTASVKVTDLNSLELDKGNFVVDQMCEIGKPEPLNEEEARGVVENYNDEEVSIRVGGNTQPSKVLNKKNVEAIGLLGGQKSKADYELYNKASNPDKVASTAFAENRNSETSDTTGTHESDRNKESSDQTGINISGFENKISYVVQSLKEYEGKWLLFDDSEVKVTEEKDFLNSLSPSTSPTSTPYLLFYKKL
Sequence of recombinant human His6-USP1/His6-UAF1 composite protein (Q8TAF3 whole entry partner): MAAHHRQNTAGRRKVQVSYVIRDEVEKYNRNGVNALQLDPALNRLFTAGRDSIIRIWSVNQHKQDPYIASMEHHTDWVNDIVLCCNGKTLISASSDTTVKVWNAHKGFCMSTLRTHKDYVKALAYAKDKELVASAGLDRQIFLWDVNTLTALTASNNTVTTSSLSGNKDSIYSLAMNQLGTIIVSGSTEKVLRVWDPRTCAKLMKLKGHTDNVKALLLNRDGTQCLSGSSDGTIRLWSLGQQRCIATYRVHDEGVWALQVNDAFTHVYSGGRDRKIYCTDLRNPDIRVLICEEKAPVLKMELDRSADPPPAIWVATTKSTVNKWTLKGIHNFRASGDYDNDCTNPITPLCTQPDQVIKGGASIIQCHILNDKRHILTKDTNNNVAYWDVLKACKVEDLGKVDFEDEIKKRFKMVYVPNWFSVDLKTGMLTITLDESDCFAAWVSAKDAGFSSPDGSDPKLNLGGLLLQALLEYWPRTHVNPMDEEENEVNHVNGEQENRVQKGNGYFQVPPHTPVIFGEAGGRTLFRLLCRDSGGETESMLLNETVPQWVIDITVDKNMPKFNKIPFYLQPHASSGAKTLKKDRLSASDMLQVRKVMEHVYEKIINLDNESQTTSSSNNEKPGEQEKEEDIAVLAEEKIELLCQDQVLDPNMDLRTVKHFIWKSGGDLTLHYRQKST
From the text: USPli compounds were screened by USP1 enzyme activity detection experiment.
1.1 Experimental materials: recombinant human His6-USP1/His6-UAF1 composite protein. (R&D, catalog number E-568-050): Ubiquitin rhodamine 110 (Ub-Rho) (R&D, catalog number U-555-050); Fluorescent 384-well plate (Perkin Elmer, Art. No. 6007279).
1.2 Test sample: Compounds of table 3 in this application, whose structural formulae and preparation methods are shown in the above examples.
Using Equation (I) to fit data in Excel to obtain the inhibition value;
[formula] • wherein, the maximum signal value represents the luminous signal intensity of the positive control hole without adding the compound of the application; the minimum signal value represents the luminous signal intensity of the negative control hole without enzyme; and the target signal value represents the luminous signal intensity of the Test samples; and • fitting the data in XL-Fit with Equation (II) to obtain IC50 value:
[formula] • wherein Y is the inhibition rate, X is the concentration of the compound; Bottom is the lowest inhibition rate; Top is the highest inhibition rate; and HillSlope is the slope.
Turning to `COc1ncnc(C2CC2)c1-c1ncc2c3ccncc3n(Cc3ccc(-c4nc(C(F)(F)F)c(F)n4C)cc3)c2n1` [Compound 155], the 50% inhibitory concentration (IC50) came to 26 nM.
Turning to `COc1ncnc(C2CC2)c1-c1ncc2c3cccc(F)c3n(Cc3ccc(-c4nc(C(F)(F)F)cn4C)cc3)c2n1` [Compound 27], the IC50 was 9.95 nM.
Take `CCn1cc(C(F)(F)F)nc1-c1ccc(Cn2c3cc(C(F)(F)F)ccc3c3cnc(-c4c(OC)ncnc4C4CC4)nc32)cc1` [Compound 45]: the IC50 was determined as 4.4 nM.
Consider `COc1ncnc(C2CC2)c1-c1ncc2c3ccc(CS(C)(=O)=O)cc3n(Cc3ccc4c(c3)CCCn3cc(C(F)(F)F)nc3-4)c2n1` [Compound 83], for which the IC50 was determined as 4.62 nM.
On to `COc1ncnc(C2CC2)c1-c1ncc2c3cn(C)nc3n(Cc3ccc(-c4nc(C(F)(F)F)c5ccccn45)cc3)c2n1` [Compound 156], for which the 50% inhibitory concentration (IC50) amounted to 3.5 nM.
Regarding `COc1ncnc(C2CC2)c1-c1ncc2c3ccc(C#N)cc3n(Cc3ccc(-c4nc(C(F)(F)F)c5ccccn45)cc3)c2n1` [Compound 126], the IC50 was determined as 7.1 nM.
Regarding `COc1ncnc(C2CC2)c1-c1ncc2c3ccccc3n([C@H](C)c3ccc(-c4nc(C(F)(F)F)cn4C(C)C)cc3)c2n1` [Compound 13-P2], the 50% inhibitory concentration (IC50) was determined as 5 nM.
Consider `COc1ncnc(C2CC2)c1-c1ncc2c3cn(C)nc3n(Cc3ccc(-c4nc(C(F)(F)F)cn4C(C)C)c(F)c3)c2n1` [Compound 107], for which the IC50 worked out at 4.65 nM.
For the molecule `COc1ncnc(C2CC2)c1-c1ncc2c3ccncc3n(Cc3ccc(-c4nc(C(F)(F)F)cn4C)cc3)c2n1` [Compound 78], the half-inhibitory concentration (IC50) came out at 4.39 nM.
Then `COc1ncnc(C2CC2)c1-c1ncc2c3cnccc3n(Cc3ccc(-c4nc(C(F)(F)F)cn4C)cc3)c2n1` [Compound 57], with 14.8 nM; and `COc1ncnc(C2CC2)c1-c1ncc2c3ccc(P4(=O)CCCC4)cc3n(Cc3ccc(-c4nc(C(F)(F)F)c5n4CCC5)cc3)c2n1` [Compound 142], with 6.2 nM.
On to `CCOc1cc(C(F)(F)F)nn1-c1ccc(Cn2c3ccccc3c3cnc(-c4c(OC)ncnc4C4CC4)nc32)cc1` [Compound 10, 2-(4-cyclopropyl-6-methoxypyrimidin-5-yl)-9-(4-(5-ethoxy-3-(trifluoromethyl)-1H-pyrazol-1-yl)benzyl)-9H-pyrimido[4,5-b]indole], for which the half-maximal inhibitory concentration (IC50) was determined as 17.8 nM.
Then `COc1ncnc(C2CC2)c1-c1ncc2c3cn(C)nc3n(Cc3ccc(-c4nc(C(F)(F)F)c5n4CCCC5)cc3)c2n1` [Compound 120], with 1.97 nM; and `COc1ncnc(C2CC2)c1-c1ncc2c3cc(F)cnc3n(Cc3ccc4c(c3)CCCn3cc(C(F)(F)F)nc3-4)c2n1` [Compound 146], with 11.6 nM; and `COc1ncnc(C2CC2)c1-c1ncc2c3c(n(Cc4ccc(-c5nc(C(F)(F)F)cn5C)cc4)c2n1)CCC3` [Compound 31], with 4.85 nM.
As for `COc1ncnc(C2CC2)c1-c1ncc2c3ccncc3n(Cc3ccc4c(c3)CCCn3cc(C(F)(F)F)nc3-4)c2n1` [Compound 61], the figure is 3.14 nM; as for `COc1ncnc(C2CC2)c1-c1ncc2c3cc(C(C)(C)O)ccc3n(Cc3ccc(-c4nc(C(F)(F)F)cn4C)cc3)c2n1` [Compound 34], 62 nM.
Turning to `[2H]C([2H])([2H])n1cc2c3cnc(-c4c(OC)ncnc4C4CC4)nc3n(Cc3ccc(-c4nc(C(F)(F)F)cn4C(C)C)cc3)c2n1` [Compound 110], the IC50 is 9.5 nM.
Turning to `COc1cc(Cn2c3ccccc3c3cnc(-c4c(OC)ncnc4C4CC4)nc32)cc(F)c1-c1nc(C(F)(F)F)cn1C(C)C` [Compound 19], the IC50 is 8.25 nM.
Consider `COC(=O)c1ccc2c3cnc(-c4c(OC)ncnc4C4CC4)nc3n(Cc3ccc(-c4nc(C(F)(F)F)cn4C)cc3)c2c1` [Compound 42], for which the half-inhibitory concentration (IC50) is 30.4 nM.
As for `CCC(c1ccc(-c2nc(C(F)(F)F)cn2C(C)C)cc1)n1c2ccccc2c2cnc(-c3c(OC)ncnc3C3CC3)nc21` (stereo not drawn) [Compound 23], the half-maximal inhibitory concentration (IC50) was determined as 11.7 nM.
Take `CCn1cc(C(F)(F)F)nc1-c1ccc(Cn2c3cc(C#N)ccc3c3cnc(-c4c(OC)ncnc4C4CC4)nc32)cc1` [Compound 50]: the concentration for half-maximal inhibition (IC50) was 4.84 nM.
With `COc1ncnc(C2CC2)c1-c1ncc2c3cn(C)nc3n(Cc3ccc4c(c3)C3C(Cn5cc(C(F)(F)F)nc5-4)C3(F)F)c2n1` (stereo not drawn) [Compound 133], the IC50 was 22 nM.
Regarding `COc1ncnc(C2CC2)c1-c1ncc2c3ncncc3n(Cc3ccc4c(c3)CCCn3cc(C(F)(F)F)nc3-4)c2n1` [Compound 112], the IC50 was found to be 23.9 nM.
`COc1ncnc(C2CC2)c1-c1ncc2c3ccc(NS(C)(=O)=O)cc3n(Cc3ccc(-c4nc(C(F)(F)F)cn4C)cc3)c2n1` [Compound 59]: the IC50 was 7.21 nM.
On to `COc1ncnc(C2CC2)c1-c1ncc2c3ccncc3n(C3CCc4cc(-c5nc(C(F)(F)F)cn5C)ccc43)c2n1` (stereo not drawn) [Compound 124], for which the IC50 was 38.5 nM.
As for `COc1ncnc(C2CC2)c1-c1ncc2c3ccc(C(C)(C)O)cc3n(Cc3ccc(-c4nc(C(F)(F)F)cn4C)cc3)c2n1` [Compound 38], the figure is 12.1 nM.
In the case of `COc1ncnc(C2CC2)c1-c1ncc2c3ccc(P4(=O)CCCC4)cc3n(Cc3ccc(-c4nc(C(F)(F)F)cn4C(C)C)c(F)c3)c2n1` [Compound 141], the IC50 amounted to 4 nM.
As to `COc1ncnc(C2CC2)c1-c1ncc2c3ccncc3n(Cc3ccc4c(c3)CCn3cc(C(F)(F)F)nc3-4)c2n1` [Compound 65], the half-maximal inhibitory concentration (IC50) turned out to be 59.6 nM.
Then `COc1ncnc(C2CC2)c1-c1ncc2c3ccc(C#N)cc3n(Cc3ccc(-c4nc(C(F)(F)F)c5cnccn45)cc3)c2n1` [Compound 129], with 36 nM.
On to `COc1ncnc(C2CC2)c1-c1ncc2c3ccc(C(O)(C(F)(F)F)C(F)(F)F)cc3n(Cc3ccc(-c4nc(C(F)(F)F)cn4C)cc3)c2n1` [Compound 122], for which the IC50 was determined as 36 nM.
As for `COc1ncnc(C2CC2)c1-c1ncc2c3ccc(C(F)F)cc3n(Cc3ccc(-c4nc(C(F)(F)F)cn4C)cc3)c2n1` [Compound 40], the half-maximal inhibitory concentration (IC50) was determined as 15.1 nM.
As for `COc1ncnc(C2CC2)c1-c1ncc2c3cn(C)nc3n(Cc3ccc(-c4nc(C(F)(F)F)c5n4CCC5)cc3)c2n1` [Compound 114], the figure is 1.89 nM; as for `COc1ccc2c3cnc(-c4c(OC)ncnc4C4CC4)nc3n(Cc3ccc4c(c3)CCCn3cc(C(F)(F)F)nc3-4)c2n1` [Compound 93], 2.56 nM.
For `Cn1cc(C(F)(F)F)nc1-c1ccc(Cn2c3cnccc3c3cnc(-c4cccc5ccn(C)c45)nc32)cc1` [Compound 85], the IC50 was 73.5 nM.
With `COc1ncnc(C2CC2)c1-c1ncc2c3cc(F)cnc3n(Cc3ccc(-c4nc(C(F)(F)F)cn4C)cc3)c2n1` [Compound 117], the 50% inhibitory concentration (IC50) is 3.54 nM.
As for `COc1ncnc(C2CC2)c1-c1ncc2c3ccc(S(C)(=O)=O)cc3n(Cc3ccc(-c4nc(C(F)(F)F)cn4C(C)C)cc3)c2n1` [Compound 14], the half-maximal inhibitory concentration (IC50) was 4.32 nM.
In the case of `COc1ncnc(C2CC2)c1-c1ncc2c3cn(C)nc3n(Cc3ccc(-c4nc(C(F)(F)F)c5n4CCC5)c(F)c3)c2n1` [Compound 143], the concentration for half-maximal inhibition (IC50) was 4.67 nM.
As for `COc1ncnc(C2CC2)c1-c1ncc2c(n1)n(Cc1ccc(-c3nc(C(F)(F)F)cn3C(C)C)cc1)c1nccn21` [Compound 32], the figure is 19.1 nM; as for `CCP(=O)(CC)c1ccc2c3cnc(-c4c(OC)ncnc4C4CC4)nc3n(Cc3ccc4c(c3)CCCn3cc(C(F)(F)F)nc3-4)c2c1` [Compound 154], 6.2 nM; as for `COc1ncnc(C2CC2)c1-c1ncc2c3ccc(F)nc3n(Cc3ccc4c(c3)CCCn3cc(C(F)(F)F)nc3-4)c2n1` [Compound 94], 3.69 nM.
In the case of `COc1ncnc(C2CC2)c1-c1ncc2c3ccc(F)nc3n(Cc3ccc(-c4nc(C(F)(F)F)cn4C)cc3)c2n1` [Compound 73], the IC50 came to 4.9 nM.
Consider `COc1ncnc(C2CC2)c1-c1ncc2c3ccncc3n(Cc3ccc(-c4nc(C(F)(F)F)cn4C(C)C)cc3)c2n1` [Compound 29], for which the IC50 worked out at 4.62 nM.
For `COc1ncnc(C2CC2)c1-c1ncc2c3c(F)cccc3n(Cc3ccc(-c4nc(C(F)(F)F)cn4C(C)C)cc3)c2n1` [Compound 4, 2-(4-cyclopropyl-6-methoxypyrimidin-5-yl)-5-fluoro-9-(4-(1-isopropyl-4-(trifluoromethyl)-1H-imidazol-2-yl)benzyl)-9H-pyrimido[4,5-b]indole], the IC50 came out at 6.85 nM.
Consider `COc1cnn(C2CCC2)c1-c1ncc2c3ccncc3n(Cc3ccc(-c4nc(C(F)(F)F)cn4C)cc3)c2n1` [Compound 81], for which the IC50 was determined as 7.15 nM.
On to `CCn1cc(C(F)(F)F)nc1-c1ccc(Cn2c3ccccc3c3cnc(-c4c(OC)ncnc4C4CC4)nc32)cc1` [Compound 9, 2-(4-cyclopropyl-6-methoxypyrimidin-5-yl)-9-(4-(1-ethyl-4-(trifluoromethyl)-1H-imidazol-2-yl)benzyl)-9H-pyrimido[4,5-b]indole], for which the half-inhibitory concentration (IC50) came to 4.07 nM.
`COc1ncnc(C2CC2)c1-c1ncc2c3ccc(P(C)(C)=O)cc3n(Cc3ccc4c(c3)CCCn3cc(C(F)(F)F)nc3-4)c2n1` [Compound 96]: the IC50 came to 4.89 nM.
Then `COc1ncnc(C2CC2)c1-c1ncc2c3ccncc3n(Cc3ccc(-c4nc(C(F)(F)F)cn4C)cc3)c2n1` [Compound 55], with 7.9 nM; and `COc1ncnc(C2CC2)c1-c1ncc2c3sncc3n(Cc3ccc(-c4nc(C(F)(F)F)cn4C)cc3)c2n1` [Compound 60], with 5.34 nM.
`COc1ncnc(C2CC2)c1-c1ncc2c3cnn(C)c3n(Cc3ccc(-c4nc(C(F)(F)F)cn4C(C)C)cc3)c2n1` [Compound 106]: the IC50 amounted to 4.56 nM.
With `COc1ncnc(C2CC2)c1-c1ncc2c3cc(C(F)(F)F)ccc3n(Cc3ccc(-c4nc(C(F)(F)F)cn4C(C)C)cc3)c2n1` [Compound 22], the half-maximal inhibitory concentration (IC50) was determined as 135 nM.
`COc1ncnc(C2CC2)c1-c1ncc2c3cc(F)ccc3n(Cc3ccc(-c4nc(C(F)(F)F)cn4C(C)C)cc3)c2n1` [Compound 15]: the 50% inhibitory concentration (IC50) came out at 12.2 nM.
Then `COc1ncnc(C2CC2)c1-c1ncc2c3ccncc3n(Cc3ccc4c(c3)CCCCn3cc(C(F)(F)F)nc3-4)c2n1` [Compound 90], with 3.65 nM.
Consider `COc1cc(Cn2c3ccccc3c3cnc(-c4c(OC)ncnc4C4CC4)nc32)ccc1-c1nc(C(F)(F)F)cn1C(C)C` [Compound 18], for which the IC50 worked out at 7.38 nM.

The term IC50 denotes the concentration that inhibits the measured activity by half.
